According to patent publication US20230416239A1, “COMPOUNDS AND METHODS FOR TREATING A CYTOKINE-MEDIATED DISEASE” (CONSERVATOIRE NATIONAL DES ARTS ET MÉTIERS, priority 2020, published 2023):

How the values were obtained:
TNFα = TNFα (Homo sapiens, UniProt P01375); assay: Immunoassay binding test, TNFa; settings: compounds 100 to 0.78 μM; TNFα 10 ng/ml, receptor 100 ng/ml; read-out: BINDING TNF IC50
In short: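 ELISA-type binding test: receptor-coated plates blocked with 2% BSA, then cytokine (six-point dilution series) preincubated 2 h at 37 °C and bound overnight at 4 °C. Detection used biotinylated anti-cytokine antibody and avidin-HRP, read as OD at 450 nm. For IL-6, IL-6Ra was present at 200 ng/ml final.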

TNFa/TNFRI interaction = TNFa/TNFRI interaction (Homo sapiens, UniProt P01375); assay: TNFa/TNFRI interaction displacement test; format: binding; settings: for Displacement (%): compounds at 50 μM, human TNFRI 100 ng/ml; for Displacement EC50 TNFa in presence of compound: Difference: Compound EC50 minus SPD304 EC50;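 on Displacement EC50 TNFa in presence of compound: Difference: SPD304 reference at 20 µM final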
Sequence of TNFa/TNFRI interaction (P01375 77-233 limits assumed): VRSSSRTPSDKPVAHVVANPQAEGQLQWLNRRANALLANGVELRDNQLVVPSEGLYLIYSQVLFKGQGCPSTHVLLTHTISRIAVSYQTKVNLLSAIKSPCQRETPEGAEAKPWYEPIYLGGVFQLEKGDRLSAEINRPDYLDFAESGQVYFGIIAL
In short: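 Plates coated overnight at 4° C with human TNFRI (100 ng/ml) and blocked with 2% BSA, then test mixtures were incubated overnight at 4° C. Bound cytokine detected with biotinylated anti-cytokine antibody (2 h, 37° C) and avidin-HRP, read as OD at 450 nm.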

IL-4 = target: T1, IL-4 (Homo sapiens, UniProt P05112); assay: Immunoassay binding test, IL-4; settings: for IC50: IL-4 400 ng/ml, receptor 100 ng/ml, read-out: BINDING IL4 IC50
T1 sequence (P05112 25-153): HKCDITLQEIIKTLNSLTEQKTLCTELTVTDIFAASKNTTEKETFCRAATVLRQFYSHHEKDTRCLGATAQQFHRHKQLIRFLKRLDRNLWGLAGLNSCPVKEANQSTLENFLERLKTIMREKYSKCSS
In short: (§1)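 Compounds (final 100 to 0.78 μM) were preincubated 2 h at 37 °C with a fixed amount of cytokine; for IL-6, IL-6Ra was also present at 200 ng/ml final. Mixtures were then incubated overnight at 4 °C on receptor-coated plates. Bound cytokine was detected with biotinylated anti-cytokine antibody and avidin-HRP, read as OD at 450 nm.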

IL-13 = IL-13 (Homo sapiens, UniProt P35225); assay: Immunoassay binding test, IL-13; settings: for IC50: IL-13 400 ng/ml, receptor 100 ng/ml, read-out: BINDING IL13 IC50
Sequence of IL-13 (P35225 25-146, species assumed): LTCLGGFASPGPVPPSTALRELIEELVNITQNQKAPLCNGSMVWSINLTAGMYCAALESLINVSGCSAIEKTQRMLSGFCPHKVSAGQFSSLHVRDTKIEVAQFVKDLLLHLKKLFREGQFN
In short: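 Receptor-coated plates; compounds (100 to 0.78 μM final) preincubated 2 h at 37° C with fixed cytokine, then bound to receptor overnight at 4° C. Bound cytokine detected with biotinylated anti-cytokine antibody and avidin-HRP, OD 450 nm.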

IL-6 = IL-6 (Homo sapiens, UniProt P05231); assay: Immunoassay binding test, IL-6 (gp130 receptor, IL-6Ra present); settings: IL-6Ra 200 ng/ml
Sequence of IL-6 (P05231 30-212, species assumed): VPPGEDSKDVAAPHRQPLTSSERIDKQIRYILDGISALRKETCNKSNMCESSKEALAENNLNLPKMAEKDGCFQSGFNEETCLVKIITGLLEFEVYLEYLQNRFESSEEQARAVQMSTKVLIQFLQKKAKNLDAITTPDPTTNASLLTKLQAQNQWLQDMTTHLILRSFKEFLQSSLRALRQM
In short: as §1

Sequence of TNFα (P01375 77-233 limits assumed, species assumed): as the sequence (P01375 77-233 limits assumed) above

What does the source list for `O=S(=O)(c1ccccc1)n1cc(CN(CCCCNC2CCCCCCC2)Cc2cccnc2F)c2ccccc21` [Compound 75, N′-cyclooctyl-N^4-((2-fluoropyridin-3-yl)methyl)-N^4-((1-(phenylsulfonyl)-1H-indol-3-yl)methyl)butane-1,4-diamine]?
IC50 (TNFα): 11.2 µM; Displacement (%) (TNFa/TNFRI interaction): 147%; BINDING IL4 % Neutra at 100 μM (IL-4): 92.0%; IC50 (IL-4): 8.5 µM; BINDING IL13 % Neutra at 100 μM (IL-13): 85.8%; IC50 (IL-13): > 50 µM; BINDING IL6 % Neutra at 100 μM (IL-6): 0%

For `O=S(=O)(NCCCCN(Cc1cccnc1F)Cc1cn(S(=O)(=O)c2ccccc2)c2ccccc12)N1CCCCCC1` [Compound 81], which IC50 (TNFα) is on record?
The IC50 was greater than 50 µM.

What about the “Displacement (%)” value (TNFa/TNFRI interaction) of the same molecule?
The value was 0%.

What about the “BINDING IL4 % Neutra at 100 μM” value (IL-4) of the same molecule?
The value was 39.3%.

What about the IC50 (IL-4) of the same molecule?
The IC50 was greater than 50 µM.

What about the “BINDING IL13 % Neutra at 100 μM” value (IL-13) of the same molecule?
The value was 0%.

And the “BINDING IL6 % Neutra at 100 μM” value (IL-6)?
The value was 1%.

For `CN1CCN(S(=O)(=O)n2cc(CN(CCCCN(C)C3CCCCC3)Cc3cccnc3F)c3ccccc32)CC1` [Compound 92], which IC50 (TNFα) is on record?
Its IC50 is 8.4 µM.

And the “Displacement (%)” value (TNFa/TNFRI interaction)?
Its value is 117%.

What about the “BINDING IL4 % Neutra at 100 μM” value (IL-4) of the same molecule?
The value was 92.3%.

And the IC50 (IL-4)?
Its IC50 is 7.7 µM.

And the “BINDING IL13 % Neutra at 100 μM” value (IL-13)?
The value was 72.0%.

And the IC50 (IL-13)?
Its IC50 is greater than 50 µM.

And the “BINDING IL6 % Neutra at 100 μM” value (IL-6)?
The value was 2%.

Which results are given for `CN(CCCCN(Cc1cccnc1F)Cc1cn(S(=O)(=O)c2ccccc2)c2ncccc12)C1CCCCC1` [Compound 94, N1-cyclohexyl-N4-((2-fluoropyridin-3-yl)methyl)-N1-methyl-N4-((1-(phenylsulfonyl)-1H-pyrrolo[2,3-b]pyridin-3-yl)methyl)butane-1,4-diamine]?
IC50 (TNFα): 19 µM; Displacement (%) (TNFa/TNFRI interaction): 101%; BINDING IL4 % Neutra at 100 μM (IL-4): 95.8%; IC50 (IL-4): 34.5 µM; BINDING IL13 % Neutra at 100 μM (IL-13): 75.2%; IC50 (IL-13): > 50 µM; BINDING IL6 % Neutra at 100 μM (IL-6): 0%

What does the source list for `CN(CCCCN(Cc1cccnc1F)Cc1cn(S(=O)(=O)c2ccccc2)c2ccccc12)C1CCCCC1` [Compound 49, N1-cyclohexyl-N4-((2-fluoropyridin-3-yl)methyl)-N1-methyl-N4-((1-(phenylsulfonyl)-1H-indol-3-yl)methyl)butane-1,4-diamine]?
IC50 (TNFα): 8.2 µM; Displacement (%) (TNFa/TNFRI interaction): 127%; BINDING IL4 % Neutra at 100 μM (IL-4): 89.5%; IC50 (IL-4): 5.6 µM; BINDING IL13 % Neutra at 100 μM (IL-13): 88.8%; IC50 (IL-13): 23.9 µM; BINDING IL6 % Neutra at 100 μM (IL-6): 0%

What does the source list for `FC(F)(F)c1cccc(-n2cc(CN(CCCNC3CCCCC3)Cc3cccnc3)c3ccccc32)c1` [Compound 10]?
IC50 (TNFα): 23 µM; Displacement (%) (TNFa/TNFRI interaction): 121%; BINDING IL4 % Neutra at 100 μM (IL-4): 96.4%; IC50 (IL-4): 5.5 µM; BINDING IL13 % Neutra at 100 μM (IL-13): 91.1%; IC50 (IL-13): > 50 µM; BINDING IL6 % Neutra at 100 μM (IL-6): 10.7%

What does the source list for `CCN(CCCCN(Cc1cccnc1F)Cc1cn(S(=O)(=O)c2ccccc2)c2ccccc12)C1CCCCC1` [Compound 66, N′-cyclohexyl-N′-ethyl-N^4-((2-fluoropyridin-3-yl)methyl)-N^4-((1-(phenylsulfonyl)-1H-indol-3-yl)methyl)butane-1,4-diamine]?
IC50 (TNFα): 6.4 µM; Displacement (%) (TNFa/TNFRI interaction): 215%; BINDING IL4 % Neutra at 100 μM (IL-4): 89.1%; IC50 (IL-4): 4.7 µM; BINDING IL13 % Neutra at 100 μM (IL-13): 85.1%; IC50 (IL-13): 36 µM; BINDING IL6 % Neutra at 100 μM (IL-6): 3%

How did the IC50 (TNFα) turn out when `CN(CCCCN(Cc1cccnc1F)Cc1cn(S(=O)(=O)c2ccccc2)c2ccccc12)C1CCCCCC1` [Compound 74, N′-cycloheptyl-N^4-((2-fluoropyridin-^3-yl)methyl)-N′-methyl-N^4-((1-(phenylsulfonyl)-1H-indol-^3-yl)methyl)butane-1,4-diamine] was run?
Its IC50 is 6.6 µM.

And the “Displacement (%)” value (TNFa/TNFRI interaction)?
Its value is 160%.

What about the “BINDING IL4 % Neutra at 100 μM” value (IL-4) of the same molecule?
Its value is 91.9%.

And the IC50 (IL-4)?
Its IC50 is 5.7 µM.

What about the “BINDING IL13 % Neutra at 100 μM” value (IL-13) of the same molecule?
Its value is 87.3%.

And the IC50 (IL-13)?
Its IC50 is greater than 50 µM.

What about the “BINDING IL6 % Neutra at 100 μM” value (IL-6) of the same molecule?
Its value is 0%.

Which results are given for `CN(CCCCCN(Cc1ccncc1)Cc1cn(-c2cccc(C(F)(F)F)c2)c2ccccc12)C1CCCCC1` [Compound 39]?
IC50 (TNFα): 14.7 µM; Displacement EC50 TNFa in presence of compound: Difference (TNFa/TNFRI interaction): 4.2 ng/mL; Displacement (%) (TNFa/TNFRI interaction): 159%; BINDING IL4 % Neutra at 100 μM (IL-4): 96%; IC50 (IL-4): 4.7 µM; BINDING IL13 % Neutra at 100 μM (IL-13): 94.8%; IC50 (IL-13): > 50 µM; BINDING IL6 % Neutra at 100 μM (IL-6): 23.7%

How did the IC50 (TNFα) turn out when `FC(F)(F)c1cccc(-n2cc(CN(CCNC3CCCCC3)Cc3ccncc3)c3ccccc32)c1` [Compound 29] was run?
The IC50 was 18.3 µM.

And the “Displacement (%)” value (TNFa/TNFRI interaction)?
The value was 103%.

What about the “BINDING IL4 % Neutra at 100 μM” value (IL-4) of the same molecule?
Its value is 96.4%.

And the IC50 (IL-4)?
Its IC50 is 6.2 µM.

What about the “BINDING IL13 % Neutra at 100 μM” value (IL-13) of the same molecule?
The value was 86.8%.

And the IC50 (IL-13)?
Its IC50 is greater than 50 µM.

What about the “BINDING IL6 % Neutra at 100 μM” value (IL-6) of the same molecule?
The value was 17.3%.

How did the IC50 (TNFα) turn out when `FC(F)(F)c1cccc(-n2cc(CN(CCCCNC3CCCCC3)Cc3cccnc3)c3ccccc32)c1` [Compound 21] was run?
Its IC50 is 14.1 µM.

And the “Displacement EC50 TNFa in presence of compound: Difference” value (TNFa/TNFRI interaction)?
The value was 4.9 ng/mL.

And the “Displacement (%)” value (TNFa/TNFRI interaction)?
Its value is 141%.

And the “BINDING IL4 % Neutra at 100 μM” value (IL-4)?
Its value is 98%.

What about the IC50 (IL-4) of the same molecule?
Its IC50 is 2.1 µM.

What about the “BINDING IL13 % Neutra at 100 μM” value (IL-13) of the same molecule?
The value was 94.6%.

What about the IC50 (IL-13) of the same molecule?
Its IC50 is 19.5 µM.

And the “BINDING IL6 % Neutra at 100 μM” value (IL-6)?
The value was 3.7%.

With `O=S(=O)(c1ccccc1)n1cc(CN(CCNC2CCCCC2)Cc2cccnc2)c2ccccc21` [Compound 25] as the molecule, how does the IC50 (TNFα) read?
Its IC50 is 22.6 µM.

What about the “Displacement (%)” value (TNFa/TNFRI interaction) of the same molecule?
Its value is 99%.

What about the “BINDING IL4 % Neutra at 100 μM” value (IL-4) of the same molecule?
Its value is 94.6%.

What about the IC50 (IL-4) of the same molecule?
The IC50 was 7.8 µM.

And the “BINDING IL13 % Neutra at 100 μM” value (IL-13)?
Its value is 61.2%.

What about the IC50 (IL-13) of the same molecule?
Its IC50 is greater than 50 µM.

And the “BINDING IL6 % Neutra at 100 μM” value (IL-6)?
The value was −15.3%.

For `NCCCCN(Cc1cccnc1F)Cc1cn(S(=O)(=O)c2ccccc2)c2ccccc12` [Compound 63], which IC50 (TNFα) is on record?
The IC50 was 26.5 µM.

And the “Displacement (%)” value (TNFa/TNFRI interaction)?
The value was 88%.

What about the “BINDING IL4 % Neutra at 100 μM” value (IL-4) of the same molecule?
The value was 85.9%.

And the IC50 (IL-4)?
Its IC50 is 16 µM.

And the “BINDING IL13 % Neutra at 100 μM” value (IL-13)?
Its value is 55.4%.

What about the IC50 (IL-13) of the same molecule?
Its IC50 is greater than 50 µM.

And the “BINDING IL6 % Neutra at 100 μM” value (IL-6)?
Its value is 0%.

Which IC50 (TNFα) does the source give for `CCCCN(CCCCN(Cc1cccnc1F)Cc1cn(S(=O)(=O)c2ccccc2)c2ccccc12)C1CCCCC1` [Compound 68, N′-butyl-N′-cyclohexyl-N^4-((2-fluoropyridin-3-yl)methy)-N^4-((1-(phenylsulfonyl)-1H-indol-3-yl)methyl)butane-1,4-diamine] here?
Its IC50 is 10 µM.

And the “Displacement (%)” value (TNFa/TNFRI interaction)?
Its value is 219%.

What about the “BINDING IL4 % Neutra at 100 μM” value (IL-4) of the same molecule?
Its value is 86.0%.

And the IC50 (IL-4)?
Its IC50 is 4.2 µM.

What about the “BINDING IL13 % Neutra at 100 μM” value (IL-13) of the same molecule?
Its value is 81.6%.

What about the IC50 (IL-13) of the same molecule?
Its IC50 is 17.3 µM.

What about the “BINDING IL6 % Neutra at 100 μM” value (IL-6) of the same molecule?
Its value is 0%.
